Holding throughout (test): stopped-flow CO2 hydrase assay
What all share (type): biochemical

The target of one assay is T1, hCA VII (Homo sapiens, UniProt P43166).
T1 construct: gene CA7; recombinant, obtained as reported earlier; cytosolic isoform
The source says:
stopped-flow CO2 hydrase assay on hCA VII

The next assay has as its target T2, hCA II (Homo sapiens, UniProt P00918).
T2 construct: gene CA2; recombinant, obtained as reported earlier; cytosolic isoform
The source says: stopped-flow CO2 hydrase assay on hCA II

The target in the next assay is T3, hCA I (Homo sapiens, UniProt P00915).
T3 construct: gene CA1; recombinant, obtained as reported earlier; cytosolic isoform
T3 sequence (P00915 2-261): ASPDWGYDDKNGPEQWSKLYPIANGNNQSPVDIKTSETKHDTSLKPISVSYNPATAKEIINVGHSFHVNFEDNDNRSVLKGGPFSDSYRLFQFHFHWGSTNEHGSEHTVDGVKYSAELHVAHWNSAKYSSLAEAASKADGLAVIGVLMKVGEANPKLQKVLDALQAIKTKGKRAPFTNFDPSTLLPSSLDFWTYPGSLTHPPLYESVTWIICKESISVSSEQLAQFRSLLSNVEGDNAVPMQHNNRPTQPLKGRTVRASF
An excerpt:
stopped-flow CO2 hydrase assay on hCA I

The next assay concerns the target T4, hCA IX (Homo sapiens, UniProt Q16790).
T4 construct: gene CA9; recombinant, obtained as reported earlier
An excerpt: stopped-flow CO2 hydrase assay on hCA IX

Here are results for eight molecules from publication PMC6179046, “Discovery of novel 1,3-diaryltriazene sulfonamides as carbonic anhydrase I, II, VII, and IX inhibitors” (Journal of Enzyme Inhibition and Medicinal Chemistry, 2018).

Each structure is given as a SMILES string.

The Ki is the equilibrium dissociation constant of an inhibitor or competing ligand from its target.

T1 sequence (P43166 whole entry, canonical isoform): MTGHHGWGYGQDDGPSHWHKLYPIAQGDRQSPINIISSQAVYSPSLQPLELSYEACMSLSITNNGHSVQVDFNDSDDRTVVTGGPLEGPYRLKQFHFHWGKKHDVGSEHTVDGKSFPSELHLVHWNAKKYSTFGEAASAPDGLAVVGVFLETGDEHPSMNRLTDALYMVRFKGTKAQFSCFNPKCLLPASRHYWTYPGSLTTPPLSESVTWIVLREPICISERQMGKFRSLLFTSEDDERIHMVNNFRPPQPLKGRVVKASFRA

As for `CCCCOc1ccc(NN=Nc2cccc(S(N)(=O)=O)c2)cc1` [4d, 3–(3-(4-butoxyphenyl)triaz-1-en-1-yl) benzenesulfonamide], the Ki at hCA VII is 5870 ± 314 nM; at hCA II, 519 ± 39 nM; at hCA I, 618 ± 40 nM; on hCA IX it was 7430 ± 216 nM.

For the molecule `COc1ccc(/N=N/Nc2cccc(S(N)(=O)=O)c2)cc1OC` [4g, 3–(3-(3,4-dimethoxyphenyl)triaz-1-en-1-yl)benzenesulfonamide], the Ki came out at 2560 ± 129 nM at hCA VII, 6460 ± 310 nM on hCA II, 3850 ± 179 nM on hCA I and 84.9 ± 4.5 nM on hCA IX.

On to `NS(=O)(=O)c1cccc(/N=N/Nc2ccc(F)cc2)c1` [4a, 3–(3-(4-fluorophenyl)triaz-1-en-1-yl) benzenesulfonamide], for which the Ki at hCA VII amounted to 9480 ± 348 nM; at hCA II, 858 ± 43 nM; on hCA I, 365 ± 15 nM; at hCA IX it was 8050 ± 126 nM.

Turning to `NS(=O)(=O)c1cccc(N=NNc2ccc(Cl)c(Cl)c2)c1` [4h, 3–(3-(3,4-dichlorophenyl)triaz-1-en-1-yl)benzenesulfonamide], the Ki at hCA VII was 7830 ± 418 nM; at hCA II it was 9190 ± 504 nM; at hCA I, 8370 ± 601 nM; on hCA IX, 9270 ± 451 nM.

As for `Cc1cc(C)cc(NN=Nc2cccc(S(N)(=O)=O)c2)c1` [4f, 3–(3-(3,5-dimethylphenyl)triaz-1-en-1-yl)benzenesulfonamide], the Ki on hCA VII is 15.6 ± 0.9 nM; on hCA II it was 4.3 ± 0.2 nM; on hCA I it was 277 ± 18 nM; on hCA IX, 50.8 ± 3.6 nM.

For `COc1ccc(/N=N/Nc2cccc(S(N)(=O)=O)c2)cc1` [4e, 3–(3-(4-methoxyphenyl)triaz-1-en-1-yl) benzenesulfonamide], the Ki at hCA VII came out at 5760 ± 324 nM; on hCA II, 877 ± 62 nM; on hCA I it was 416 ± 32 nM; on hCA IX, 7230 ± 159 nM.

Turning to `N#Cc1ccc(NN=Nc2cccc(S(N)(=O)=O)c2)cc1` [4c, 3–(3-(4-cyanophenyl)triaz-1-en-1-yl) benzenesulfonamide], the Ki at hCA VII amounted to 7900 ± 456 nM; at hCA II, 605 ± 34 nM; on hCA I, 501 ± 31 nM; at hCA IX, 8960 ± 348 nM.

On to `NS(=O)(=O)c1cccc(N/N=N/c2ccc(C(=O)O)cc2)c1` [4b, 4–(3-(3-sulfamoylphenyl)triaz-2-en-1-yl) benzoic acide], for which the Ki on hCA VII turned out to be 967 ± 54 nM; at hCA II it was 68.7 ± 5.1 nM; on hCA I, 92.3 ± 7.1 nM; at hCA IX, 835 ± 47 nM.
